Data set [1] in a line: Measurement of critical micelle concentration (CMC) with CMC assay kit. It is filed as physicochemical. As for the experimental part:
(§1) For the IMCTA-C8, IMCTA-C9, IMCTA-C10, IMCTA-C11, IMCTA-C12, IMCTA-C13, IMCTA-C14, and IMCTA-C15 (IMCTA-Cn) that were obtained in synthesis examples 1 to 8 and for n-dodecyl-β-D-maltoside (DDM) as control, “critical micelle concentration (CMC)”, “micelle size”, and “Hydrophilic-Lipophilic Balance (HLB) value” were measured or calculated in the following manner.
CMC was measured with a Detergent Critical Micelle Concentration (CMC) Assay Kit (CMC1000, manufactured by ProFoldin) according to the product protocol.

Data set [2] in a line: Measurement of micelle size by dynamic light scattering. It is filed as physicochemical. As for the experimental part: as §1
Micelle sizes were measured by dynamic light scattering with Zetasizer Nano S (manufactured by Malvern Panalytical).

The test system of data set [3] is Mycobacterium smegmatis mc^2 (ATCC 700084). Put plainly: Staining of mycobacterium with IMCTA-fluorescein, IMCTA-biotin or IMCTA-azide. The data set is classed as cell-based. As to conditions: for ingestion into bacterial cells and fluorescence (staining): 10 μg/mL IMCTA-fluorescein, 30 μg/mL IMCTA-biotin, 10 μg/mL IMCTA-azide, 37° C., 8 hours; for ingestion in the presence of sucrose (blocking): sucrose 1% or 3%.

Data set [4] has as its system human ovarian cancer cells OVK18 and human malignant melanoma cells Mewo. Put plainly: Autophagy inducing effect on cultured cells (western blotting of autophagy-related proteins). It is filed as cell-based. The settings on record: for accumulation of PCD (precursors of cathepsin D) / concentration giving same or higher LC3-II expression, relative to trehalose / p62 / pAkt / phosphorylation of p70 S6K: 24 hours; for expression of LC3-II (autophagy marker): 24 hours treatment, western blotting. Here is the method:
Expression and phosphorylation patterns of autophagy-related proteins when human ovarian cancer cells or human malignant melanoma cells were treated with 4-trehalosamine and trehalose analog for 24 hours were determined by western blotting.
Human ovarian cancer cells OVK18 (obtained from RIKEN BRC) and human malignant melanoma cells Mewo (JCRB0066) were each inoculated on a 12-well microplate at 8×10^4 cells/mL/well and cultured in DMEM culture medium at 37° C. for 72 hours, after which they were treated with test samples.
The test samples used were the 4-trehalosamine (4TA) obtained in the <Purification process> of production example 10, trehalose (TRH), the IMCTA-Cn compounds obtained in synthesis examples 1 to 8, trehalose ester (TRH-Cn) (manufactured by Dojindo Laboratories), n-dodecyl-β-D-maltoside (DDM), maltose (MLT), sucrose (SCR), and rapamycin (RM). Untreated cells without addition of compounds were used as control.
In treatment with the test samples, in order to avoid contact of a compound with locally high concentration with cells, a half of the culture fluid in each well was taken, and a required amount of test sample was dissolved in it. After dissolving it sufficiently, it was returned to the original well and treated at 37° C. for 24 hours.
Subsequently, culture medium containing the test samples was removed, washed once with PBS, and dissolved with 2×SDS sample buffer not containing 2-mercaptoethanol (2-ME) or bromphenol blue (BPB). After measuring the protein concentration in the dissolved sample with a BCA protein assay kit (manufactured by Thermo Fisher Scientific), 2-ME and BPB were added and the sample was boiled for 5 minutes, which was used as a sample for western blotting.
The western blotting was performed in a similar manner to test example 4 except that anti-LC3 antibody, which is a marker for autophagy, anti-p62, anti-cathepsin D antibody, anti-Phospho-Akt (Ser473) antibody, anti-Akt antibody, anti-Phospho-p70 S6K (T389) antibody, and anti-p70 S6K antibody (all manufactured by Cell Signaling Technology) were used at 1/2,000 dilution as the primary antibodies in the method described in test example 4.
The results for human ovarian cancer cells OVK18 are shown in FIGS. 20A to 20C, and the results for human malignant melanoma cells Mewo are shown in FIGS. 20D to 20F. In FIGS. 20A, 20B, 20D, and 20E, “PCD” denotes precursors of cathepsin D and “CD-HC” denotes cathepsin D heavy chain.
In general terms: Immunoblotting shows a protein as a band on a membrane.

The values below come from patent publication US20250002954A1, “Novel Compound, Use Thereof, and Method for Producing Same, and Compound-Containing Composition, Method for Producing 4-Trehalosamine, and Microorganism” (Microbial Chemistry Research Foundation, priority 2021, published 2025).

The molecule `CCCCCCCCN[C@@H]1C(CO)O[C@H](O[C@H]2OC(CO)[C@@H](O)C(O)C2O)C(O)C1O` (some centres unmarked) [IMCTA-C8] came in with a CMC in data set [1] of 8.02 mM. In data set [2], the Micelle size stood at 4.3 ± 1.7 nm.

For the molecule `[N-]=[N+]=N[C@@H]1C(CO)O[C@H](O[C@H]2OC(CO)[C@@H](O)C(O)C2O)C(O)C1O` (some centres unmarked) [IMCTA-azide, 4-azide-4-deoxy-trehalose], in data set [3], the “ingestion into bacterial cells and fluorescence (staining)” value is “ingested into Mycobacterium smegmatis bacterial cells and emitted fluorescence”; the “ingestion in the presence of sucrose (blocking)” value is “suppression of ingestion was observed”. Besides, the “fluorescence strength compared among labelers” value in data set [3] (same amount of labeler) was “strongest fluorescence”. The “ingestion in the presence of trehalose (blocking)” value in data set [3] (trehalose 1% or 3%) was “suppression of ingestion was observed”.

Consider `CCCCCCCCCCCCCCCN[C@@H]1C(CO)O[C@H](O[C@H]2OC(CO)[C@@H](O)C(O)C2O)C(O)C1O` (some centres unmarked) [IMCTA-C15], for which, in data set [1], the CMC turned out to be 0.06 mM. Also, the Micelle size in data set [2] is recorded as 92.5 ± 49 nm. Moreover, in data set [4], the “accumulation of PCD (precursors of cathepsin D)” value is recorded as “no accumulation of PCD was observed”; the “concentration giving same or higher LC3-II expression, relative to trehalose” value is recorded as “several thousand times lower than trehalose”; the p62 result was “accumulation trend of p62”; the pAkt result is given as “decreasing trend of pAkt”. In data set [4], the “phosphorylation of p70 S6K” value was “p70 S6K was not dephosphorylated” and the “expression of LC3-II (autophagy marker)” value is reported as “particularly strong expression”.

`CCCCCCCCCCCCCN[C@@H]1C(CO)O[C@H](O[C@H]2OC(CO)[C@@H](O)C(O)C2O)C(O)C1O` (some centres unmarked) [IMCTA-C13] had a CMC in data set [1] of 0.24 mM. The molecule also returned a Micelle size in data set [2] of 17.3 ± 10.9 nm. Moreover, in data set [4], the “accumulation of PCD (precursors of cathepsin D)” value was “no accumulation of PCD was observed”; the “concentration giving same or higher LC3-II expression, relative to trehalose” value is given as “several thousand times lower than trehalose”; the p62 entry is “accumulation trend of p62”; the pAkt entry was “decreasing trend of pAkt”. For the same molecule, in data set [4], the “phosphorylation of p70 S6K” value is reported as “p70 S6K was not dephosphorylated” and the “expression of LC3-II (autophagy marker)” value is “particularly strong expression”.

Molecule `CCCCCCCCCCCN[C@@H]1C(CO)O[C@H](O[C@H]2OC(CO)[C@@H](O)C(O)C2O)C(O)C1O` (some centres unmarked) [IMCTA-C11] displayed a CMC in data set [1] of 0.96 mM. The same molecule gave a Micelle size in data set [2] of 15.9 ± 6.5 nm.

`CCCCCCCCCCN[C@@H]1C(CO)O[C@H](O[C@H]2OC(CO)[C@@H](O)C(O)C2O)C(O)C1O` (some centres unmarked) [IMCTA-C10] came in with a CMC in data set [1] of 2.67 mM. The same molecule displayed a Micelle size in data set [2] of 5.9 ± 1.8 nm.

Regarding `CCCCCCCCCCCCO[C@@H]1O[C@H](CO)[C@@H](O[C@H]2O[C@H](CO)[C@@H](O)[C@H](O)[C@H]2O)[C@H](O)[C@H]1O` [DDM, n-dodecyl-β-D-maltoside, reference compound], the CMC in data set [1] is 0.23 mM. This molecule also yielded a Micelle size in data set [2] of 6.1 ± 0.1 nm.

As to `O=C(CCCC[C@@H]1SC[C@@H]2NC(=O)N[C@@H]21)N[C@@H]1C(CO)O[C@H](O[C@H]2OC(CO)[C@@H](O)C(O)C2O)C(O)C1O` (some centres unmarked) [IMCTA-biotin], in data set [3], the “ingestion into bacterial cells and fluorescence (staining)” value is “ingested into Mycobacterium smegmatis bacterial cells and emitted fluorescence”; the “ingestion in the presence of sucrose (blocking)” value was “some suppression of ingestion by sucrose”. Also, in data set [3] (fluorescence microscope), the staining pattern result is on record as “patch-like staining pattern”.

Regarding `CCCCCCCCCCCCN[C@@H]1C(CO)O[C@H](O[C@H]2OC(CO)[C@@H](O)C(O)C2O)C(O)C1O` (some centres unmarked) [IMCTA-C12], the CMC in data set [1] worked out at 0.58 mM. In data set [2], this molecule returned a Micelle size of 13.7 ± 6.4 nm.

Turning to `CCCCCCCCCN[C@@H]1C(CO)O[C@H](O[C@H]2OC(CO)[C@@H](O)C(O)C2O)C(O)C1O` (some centres unmarked) [IMCTA-C9], in data set [1], the CMC was 3.84 mM. The Micelle size in data set [2] is reported as 5.5 ± 1.3 nm.
